According to patent US10376499B2, “Combination therapy for treatment of resistant bacterial infections” (priority 2014, dated 2019):
≈ marks a conversion by molar mass, not a printed value.

Test system: A. baumannii
Experiment: MIC by broth microdilution (CLSI), panel of 60 A. baumannii clinical isolates (Example 1)
[1] = Acinetobacter baumannii, strain ARC593, OXA-98
[2] = Acinetobacter baumannii, strain ARC2461, OXA-66, TEM-1
[3] = Acinetobacter baumannii, strain ARC2462, TEM-1, OXA-66
[4] = Acinetobacter baumannii, strain ARC2598, OXA*, TEM-1, OXA-113
[5] = Acinetobacter baumannii, strain ARC2635, OXA-65, OXA-40, TEM-1
[6] = Acinetobacter baumannii, strain ARC2636, OXA-65, OXA-40, TEM-1
[7] = Acinetobacter baumannii, strain ARC2674, SHV-5, OXA-113
[8] = Acinetobacter baumannii, strain ARC2675, SHV-5, OXA-113
[9] = Acinetobacter baumannii, strain ARC2681, OXA-40, TEM-1, OXA-132
[10] = Acinetobacter baumannii, strain ARC2682, SHV-5, OXA-113
[11] = Acinetobacter baumannii, strain ARC2777, OXA-172, TEM-1
[12] = Acinetobacter baumannii, strain ARC2778, OXA-40, TEM-1, OXA-65
[13] = Acinetobacter baumannii, strain ARC2780 (A. baumannii/calcoaceticus complex), OXA*, OXA-2, IMP-1
[14] = Acinetobacter baumannii, strain ARC2782, OXA-66, OXA-23, TEM-1, PER-1
[15] = Acinetobacter baumannii, strain ARC2788, OXA-65, TEM-1
[16] = Acinetobacter baumannii, strain ARC3484, TEM-1, OXA-23, OXA-64
[17] = Acinetobacter baumannii, strain ARC3485, OXA-82
[18] = Acinetobacter baumannii, strain ARC3486, OXA-72, OXA-66, TEM-1
[19] = Acinetobacter baumannii, strain ARC3487, OXA-20, OXA-58, OXA-66
[20] = Acinetobacter baumannii, strain ARC3488, OXA*, OXA-68
[21] = Acinetobacter baumannii, strain ARC3489, OXA*, OXA-68
[22] = Acinetobacter baumannii, strain ARC3490, TEM-1+, PSE-2, OXA-69
[23] = Acinetobacter baumannii, strain ARC3491 (A. baumannii/calcoaceticus complex), OXA-215
[24] = Acinetobacter baumannii, strain ARC3492, OXA-40, OXA-132, TEM-1
[25] = Acinetobacter baumannii, strain ARC3493, OXA-40, OXA-66
[26] = Acinetobacter baumannii, strain ARC3494, OXA-65
[27] = Acinetobacter baumannii, strain ARC3495, OXA-40, OXA-109
[28] = Acinetobacter baumannii, strain ARC3513, TEM-1, OXA-23, OXA-65
[29] = Acinetobacter baumannii, strain ARC3515, OXA-64, OXA-58
[30] = Acinetobacter baumannii, strain ARC3657, OXA-130
[31] = Acinetobacter baumannii, strain ARC3658, OXA-66, PER-1, TEM-1, OXA-23
[32] = Acinetobacter baumannii, strain ARC3659, OXA-23, OXA*
[33] = Acinetobacter baumannii, strain ARC3882, OXA-23, NDM-1, OXA-10*
[34] = Acinetobacter baumannii, strain ARC5073, OXA-23, TEM-1, OXA-64, PER-1
[35] = Acinetobacter baumannii, strain ARC5074, GES*, TEM-1, OXA-51
[36] = Acinetobacter baumannii, strain ARC5075, SHV-5, OXA-113
[37] = Acinetobacter baumannii, strain ARC5076, TEM-1, OXA-23, OXA-66
[38] = Acinetobacter baumannii, strain ARC5077, OXA*, OXA-72
[39] = Acinetobacter baumannii, strain ARC5079, OXA-72, OXA-65
[40] = Acinetobacter baumannii, strain ARC5080, OXA-71, OXA-40
[41] = Acinetobacter baumannii, strain ARC5081, OXA-94, OXA-23
[42] = Acinetobacter baumannii, strain ARC5082, OXA-66, OXA-23
[43] = Acinetobacter baumannii, strain ARC5083, OXA-66, OXA-23
[44] = Acinetobacter baumannii, strain ARC5084, IMP-4(B), OXA-58, OXA-65
[45] = Acinetobacter baumannii, strain ARC5085, OXA*, TEM-1
[46] = Acinetobacter baumannii, strain ARC5086, OXA*, TEM-1, OXA-72, OXA-66
[47] = Acinetobacter baumannii, strain ARC5087, OXA-66, OXA-23
[48] = Acinetobacter baumannii, strain ARC5088, OXA-20, OXA-58, OXA-66
[49] = Acinetobacter baumannii, strain ARC5089, PER*, TEM-1, OXA-23, OXA-66
[50] = Acinetobacter baumannii, strain ARC5091, OXA-82, OXA-23
[51] = Acinetobacter baumannii, strain ARC5092, OXA-23, OXA-64

C[C@H]1COc2c(N3CCN(C)CC3)c(F)cc3c(=O)c(C(=O)O)cn1c23 [LEVO, levofloxacin]
MIC50 (Acinetobacter baumannii): 8 µg/mL (≈ 22.1 µM)
MIC90 (Acinetobacter baumannii): 32 µg/mL (≈ 88.6 µM)
MIC [1]: 0.25 µg/mL (≈ 0.692 µM)
MIC [2]: 16 µg/mL (≈ 44.3 µM)
MIC [3]: 16 µg/mL (≈ 44.3 µM)
MIC [4]: 4 µg/mL (≈ 11.1 µM)
MIC [5]: 16 µg/mL (≈ 44.3 µM)
MIC [6]: 16 µg/mL (≈ 44.3 µM)
MIC [7]: 16 µg/mL (≈ 44.3 µM)
MIC [8]: 32 µg/mL (≈ 88.6 µM)
MIC [9]: 16 µg/mL (≈ 44.3 µM)
MIC [10]: 16 µg/mL (≈ 44.3 µM)
MIC [11]: 32 µg/mL (≈ 88.6 µM)
MIC [12]: 32 µg/mL (≈ 88.6 µM)
MIC [13]: 4 µg/mL (≈ 11.1 µM)
MIC [14]: 4 µg/mL (≈ 11.1 µM)
MIC [15]: 32 µg/mL (≈ 88.6 µM)
MIC [16]: 8 µg/mL (≈ 22.1 µM)
MIC [17]: 16 µg/mL (≈ 44.3 µM)
MIC [18]: 8 µg/mL (≈ 22.1 µM)
MIC [19]: 8 µg/mL (≈ 22.1 µM)
MIC [20]: 32 µg/mL (≈ 88.6 µM)
MIC [21]: 16 µg/mL (≈ 44.3 µM)
MIC [22]: 16 µg/mL (≈ 44.3 µM)
MIC [23]: 1 µg/mL (≈ 2.77 µM)
MIC [24]: 8 µg/mL (≈ 22.1 µM)
MIC [25]: 4 µg/mL (≈ 11.1 µM)
MIC [26]: 0.25 µg/mL (≈ 0.692 µM)
MIC [27]: 4 µg/mL (≈ 11.1 µM)
MIC [28]: 16 µg/mL (≈ 44.3 µM)
MIC [29]: 8 µg/mL (≈ 22.1 µM)
MIC [30]: 16 µg/mL (≈ 44.3 µM)
MIC [31]: 8 µg/mL (≈ 22.1 µM)
MIC [32]: 8 µg/mL (≈ 22.1 µM)
MIC [33]: 4 µg/mL (≈ 11.1 µM)
MIC [34]: 8 µg/mL (≈ 22.1 µM)
MIC [35]: 4 µg/mL (≈ 11.1 µM)
MIC [36]: 32 µg/mL (≈ 88.6 µM)
MIC [37]: 8 µg/mL (≈ 22.1 µM)
MIC [38]: 16 µg/mL (≈ 44.3 µM)
MIC [39]: 16 µg/mL (≈ 44.3 µM)
MIC [40]: 16 µg/mL (≈ 44.3 µM)
MIC [41]: 8 µg/mL (≈ 22.1 µM)
MIC [42]: 8 µg/mL (≈ 22.1 µM)
MIC [43]: > 32 µg/mL
MIC [44]: 4 µg/mL (≈ 11.1 µM)
MIC [45]: 32 µg/mL (≈ 88.6 µM)
MIC [46]: 16 µg/mL (≈ 44.3 µM)
MIC [47]: > 32 µg/mL
MIC [48]: 8 µg/mL (≈ 22.1 µM)
MIC [49]: 16 µg/mL (≈ 44.3 µM)
MIC [50]: > 32 µg/mL
MIC [51]: 8 µg/mL (≈ 22.1 µM)
MIC (strain ARC2058, OXA-95): 0.125 µg/mL (≈ 0.346 µM)
MIC (strain ARC2779 (A. baumannii/calcoaceticus complex), OXA-2, VIM-2): 0.125 µg/mL (≈ 0.346 µM)

CN(C)[C@@H]1C(O)=C(C(N)=O)C(=O)[C@@]2(O)C(O)=C3C(=O)c4c(O)cccc4[C@@](C)(O)[C@H]3C[C@@H]12 [TET, tetracycline]
MIC50 (Acinetobacter baumannii): 16 µg/mL (≈ 36 µM)
MIC90 (Acinetobacter baumannii): > 32 µg/mL
MIC [1]: 2 µg/mL (≈ 4.5 µM)
MIC (Acinetobacter baumannii, strain ARC2058, OXA-95): 1 µg/mL (≈ 2.25 µM)
MIC [2]: > 32 µg/mL
MIC [3]: > 32 µg/mL
MIC [4]: > 32 µg/mL
MIC [5]: 8 µg/mL (≈ 18 µM)
MIC [6]: 16 µg/mL (≈ 36 µM)
MIC [7]: > 32 µg/mL
MIC [8]: 16 µg/mL (≈ 36 µM)
MIC [9]: > 32 µg/mL
MIC [10]: 8 µg/mL (≈ 18 µM)
MIC [11]: 32 µg/mL (≈ 72 µM)
MIC [12]: > 32 µg/mL
MIC (Acinetobacter baumannii, strain ARC2779 (A. baumannii/calcoaceticus complex), OXA-2, VIM-2): 2 µg/mL (≈ 4.5 µM)
MIC [13]: 2 µg/mL (≈ 4.5 µM)
MIC [14]: > 32 µg/mL
MIC [15]: 4 µg/mL (≈ 9 µM)
MIC [16]: > 32 µg/mL
MIC [17]: 32 µg/mL (≈ 72 µM)
MIC [18]: > 32 µg/mL
MIC [19]: 16 µg/mL (≈ 36 µM)
MIC [20]: > 32 µg/mL
MIC [21]: > 32 µg/mL
MIC [22]: 8 µg/mL (≈ 18 µM)
MIC [23]: 4 µg/mL (≈ 9 µM)
MIC [24]: > 32 µg/mL
MIC [25]: > 32 µg/mL
MIC [26]: 2 µg/mL (≈ 4.5 µM)
MIC [27]: > 32 µg/mL
MIC [28]: 8 µg/mL (≈ 18 µM)
MIC [29]: > 32 µg/mL
MIC [30]: 8 µg/mL (≈ 18 µM)
MIC [31]: > 32 µg/mL
MIC [32]: 8 µg/mL (≈ 18 µM)
MIC [33]: 8 µg/mL (≈ 18 µM)
MIC [34]: > 32 µg/mL
MIC [35]: 1 µg/mL (≈ 2.25 µM)
MIC [36]: > 32 µg/mL
MIC [37]: > 32 µg/mL
MIC [38]: > 32 µg/mL
MIC [39]: 8 µg/mL (≈ 18 µM)
MIC [40]: 16 µg/mL (≈ 36 µM)
MIC [41]: 2 µg/mL (≈ 4.5 µM)
MIC [42]: > 32 µg/mL
MIC [43]: > 32 µg/mL
MIC [44]: 2 µg/mL (≈ 4.5 µM)
MIC [45]: > 32 µg/mL
MIC [46]: > 32 µg/mL
MIC [47]: > 32 µg/mL
MIC [48]: 16 µg/mL (≈ 36 µM)
MIC [49]: 4 µg/mL (≈ 9 µM)
MIC [50]: 32 µg/mL (≈ 72 µM)
MIC [51]: 32 µg/mL (≈ 72 µM)
